Test results published in ChEMBL document CHEMBL2417421, “Biotransformation of ent-pimaradienoic acid by cell cultures of Aspergillus niger” (2013).

What follows are molecules tested on Aorta (assay: Antispasmodic activity in rat aorta assessed as inhibition of phenylephrine-induced aorta contraction at 100 uM after 60 mins relative to control). Settings: 1 h.
Format: functional

SMILES | inhibition at 100 µM [%]
C=C[C@]1(C)C=C2CC[C@H]3[C@@](C)(CCC[C@@]3(C)C(=O)O)[C@@H]2CC1 | 73.2
C=C[C@]1(C)C=C2[C@H](O)C[C@H]3[C@@](C)(CCC[C@@]3(C)C(=O)O)[C@@H]2CC1 | 16.8
C=C[C@]1(C)C=C2C=C[C@H]3[C@](C)([C@@H]2CC1)[C@@H](O)CC[C@@]3(C)C(=O)O | 12.5
C=C[C@@]1(C)CC[C@@H]2C(=C[C@H](O)[C@H]3[C@@]2(C)[C@H](O)CC[C@@]3(C)C(=O)O)[C@H]1O | 0
C=C[C@]1(C)C=C2[C@@H](O)[C@H](O)[C@H]3[C@@](C)([C@H](O)CC[C@@]3(C)C(=O)O)[C@@H]2[C@@H](O)C1 | 0
C=C[C@@]1(C)CC[C@@H]2C(=CC[C@H]3[C@@]2(C)CCC[C@@]3(C)C(=O)O)C1 | 50.8
C=C[C@]1(C)C=C2C(=O)C[C@H]3[C@@](C)(CCC[C@@]3(C)C(=O)O)[C@@H]2CC1 | 61.5
C=C[C@]1(C)C=C2[C@@H](CC1)[C@]1(C)CCC[C@@](C)(C(=O)OC)[C@H]1C[C@@H]2O | 82.5
C=C[C@]1(C)C=C2CC[C@@H]3[C@](C)(CO)CCC[C@@]3(C)[C@@H]2CC1 | 58.8
C=C[C@]1(C)C=C2CC[C@H]3[C@@](C)(CCC[C@@]3(C)C(=O)OC)[C@@H]2CC1 | 10.5
